Experimental data: a melting point compilation (Tetko et al.; mined from patent text by program, amines drawn as free bases though some values may be those of a salt)

| melting point [°C] | SMILES |
| --- | --- |
| 70 | CC(C)(C)OC(=O)NCC(=O)OCCCCNc1cccc2c1C(=O)c1ccccc1C2=O |
| 126 to 128 | CN1CCC(c2c[nH]c3ccc(NC(=O)c4ccncc4)nc23)CC1 |
| 103 to 105 | CC(C)N1CCN(CCCOc2ccc3nc(C#N)nc(NCC(C)(C)C)c3c2)CC1 |
| 92 to 95 | CNC(=O)CC(O)(c1ccccc1)c1ccc2nc(N)n(S(=O)(=O)C(C)C)c2c1 (stereo not given) |
| 222 | CN(C(=O)c1cn2ccc(-c3ccc(Cl)cc3)cc2n1)C(Cc1ccc(OCc2ccccc2)cc1)C(=O)O (stereo not given) |
| 141 to 142 | Nc1ccc(-c2cn(C3CCN(Cc4ccccc4)CC3)c3ncnc(N)c23)cc1F |
| 101 to 102 | c1coc(-c2nc(NCC3CC3)cc(-n3cccn3)n2)c1 |
| 215 to 216 | COC(=O)c1cccc2nc(OC)n(Cc3ccc(-c4ccccc4-c4nc(=O)o[nH]4)cc3)c12 |
| 113 to 114 | CCn1cc(-c2cccc(Cl)c2)c(=O)n1-c1cccc(C(F)(F)F)c1 |
| 144 to 145 | CC1=Nc2ccccc2C=C(c2ccccc2)N1C |
| 277 to 278 | COc1cc(C=CC(=O)Nc2cnc3ccc(Cl)cc3c2-c2ccccc2C)cc(OC)c1OC(C)=O |
| 180 | CCCOc1ccccc1-c1cc(C)c(C#N)c(=O)[nH]1 |
| 141 | O=C(c1ccc(Cl)cc1)c1cccc([N+](=O)[O-])c1N1CCCCC1 |
| 117 to 120 | CCOC(=O)C1=C(C)Nc2ccnc(OC(C)C)c2C1c1ccc(C(F)(F)F)cc1 (stereo not given) |
| 132 to 137 | NCCNC(=O)CNC(=O)Cc1ccccc1 |
| 174 to 175 | CN(C)c1ccc(C2(CNC(=O)Nc3ccccc3CCc3cc(C(C)(C)C)c(O)c(C(C)(C)C)c3)CCCC2)cc1 |
| 170 to 172 | O=C1NCCN1c1ccc(F)cc1N1CCN(C/C=C/c2ccc(Cl)cc2)CC1 |
| 60 to 63 | COC(=O)C1=C(C)NC(C)=C(C(=O)OCCN2CCCN(C(c3ccccc3)c3ccccc3)CC2)C1c1cccc([N+](=O)[O-])c1 (stereo not given) |
| 75 to 76 | COC(=O)CCN1C[C@H]2Cc3ccccc3[C@H](c3ccccc3)[C@H]2C1 (racemic) |
| 154 to 156 | CC(c1oc2ccccc2c(=O)c1-c1cccc(F)c1)n1nc(-c2csc(CO)c2)c2c(N)ncnc21 (stereo not given) |

More lines, now with the values behind:

| SMILES | melting point [°C] |
| --- | --- |
| CC(C)C1(C)Cc2cc(O)c(Cl)c(Cl)c2C1=O (stereo not given) | 215 |
| CCCCCN(CCC12CC3CC(CC(C3)C1)C2)C(=O)NC(C)CCc1ccncc1 (stereo not given) | 128 to 129 |
| Clc1cnc2ccc(Cl)c(Cl)c2n1 | 118 to 119 |
| Cn1c(=O)c2c(ncn2CCCN2CC=C(c3c[nH]c4ccccc34)CC2)n(C)c1=O | 243 |
| CCOC(=O)C1=C(N)NC(N)=C(C(=O)OCC)C1c1ccccc1N=[N+]=[N-] | 250 |
| CCN(CC)C(=O)C1(OC(=S)N(CC)CC)C=CC=NC1F (stereo not given) | 87 to 92 |
| CSc1nc2nsc(N)c2s1 | 160 to 166 |
| CCC(OC)(c1cccc(O)c1)c1nccs1 (stereo not given) | 101 to 103 |
| CN(C)c1nc(N)nc2nc[nH]c12 | 254 to 256 |
| Nc1sc2c(c1C(=O)c1ccsc1)CCCC2 | 133 to 135 |
| CCc1ccc2oc(=O)[nH]c2c1 | 146 to 147 |
| Cc1cc(C)c2nsnc2c1[N+](=O)[O-] | 105 to 106 |
| COC(=O)c1cc(Br)cc(I)c1 | 55 to 57 |
| CCOC(=O)CON(CC)C(=S)Nc1ccc(Cl)cc1C | 69 to 71 |
| Clc1cc(N2CCNCC2)ccn1 | 119 to 120 |
| OC1(c2ccc3c(c2)OCO3)CCNCC1 | 135 to 138 |
| CCCc1c2c(cc3c(=O)cc(C(=O)OCC)oc13)CCCC2 | 98 to 99.5 |
| O=c1oc2cc(O)ccc2c2c1CCCC2 | 200 to 202 |
| COc1ccccc1C=CC(=O)CC(=O)C=Cc1ccccc1OC | 121 to 123 |
| FC(F)(F)c1cc(Cl)c(-n2cnc(C(F)(F)C(F)(F)Cl)c2)c(Cl)c1 | 101 |
